From ChEMBL document CHEMBL1201862, “PubChem BioAssay data set” (2004)
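Exposure lasted 48 hours, with cells grown in 96-well plates and compounds tested at five concentrations. GI50: concentration for 50% inhibition of growth.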 Active and inactive are the calls of the source. Rule as the data show it: active = GI50 up to about 1.1 µM and inactive = higher. Where a SMILES comes first, the peptide text is derived from it. The star is where a group is joined. ONb = O=[N+]([O-])c1ccc(CO*)cc1; Boc = CC(C)(C)OC(=O)*

Legend:
Experiment in all cases: DTP human tumour cell line panel, 48 h
A498 = tested on: A498
HT-29 = tested on: HT-29
OVCAR-3 = tested on: OVCAR-3
SN12C = tested on: SN12C
HCT-116 = tested on: HCT-116
SNB-19 = tested on: SNB-19
SK-OV-3 = tested on: SK-OV-3
HCT-15 = tested on: HCT-15
EKVX = tested on: EKVX
NCI-H23 = tested on: NCI-H23
SF-539 = tested on: SF-539
MCF7 = tested on: MCF7
CAKI-1 = tested on: CAKI-1
PC-3 = tested on: PC-3
ACHN = tested on: ACHN
OVCAR-4 = tested on: OVCAR-4
OVCAR-8 = tested on: OVCAR-8
OVCAR-5 = tested on: OVCAR-5
UACC-62 = tested on: UACC-62
RPMI-8226 = tested on: RPMI-8226

| SMILES | GI50 (A498) | GI50 (HT-29) | GI50 (OVCAR-3) | GI50 (SN12C) | GI50 (HCT-116) | GI50 (SNB-19) | GI50 (SK-OV-3) | GI50 (HCT-15) [µM] | GI50 (EKVX) | GI50 (NCI-H23) | GI50 (SF-539) | GI50 (MCF7) | GI50 (CAKI-1) | GI50 (PC-3) | GI50 (ACHN) | GI50 (OVCAR-4) | GI50 (OVCAR-8) | GI50 (OVCAR-5) | GI50 (UACC-62) | GI50 (RPMI-8226) |
| --- | --- | --- | --- | --- | --- | --- | --- | --- | --- | --- | --- | --- | --- | --- | --- | --- | --- | --- | --- | --- |
| CCOC(=O)CC1(O)CCCCC1(Sc1ccc(C)cc1)Sc1ccc(C)cc1 (configuration not stated) | > 100 µM (inactive) | 32.2 µM (inactive) | 55.5 µM (inactive) | 39.4 µM (inactive) | 33.9 µM (inactive) | 81.1 µM (inactive) | > 100 µM (inactive) | 34.4 | 26.9 µM (inactive) | 49.4 µM (inactive) | > 100 µM (inactive) | 31.6 µM (inactive) | 32.2 µM (inactive) | 33.3 µM (inactive) | 51.5 µM (inactive) | 47.8 µM (inactive) | 56.1 µM (inactive) | 44.2 µM (inactive) | 92 µM (inactive) |  |
| Nc1nc(N)c2c(n1)NC(=O)c1c(c3ccccc3n1Cc1ccc(Cl)cc1)C2 | 16 µM (inactive) | 31.3 µM (inactive) | 23.3 µM (inactive) | 17.3 µM (inactive) | 23.6 µM (inactive) | > 100 µM (inactive) | 18.8 µM (inactive) | 17 | 33.2 µM (inactive) | > 100 µM (inactive) | 23.9 µM (inactive) | 35.3 µM (inactive) | 19.7 µM (inactive) | 23 µM (inactive) |  | 18.5 µM (inactive) | 26.4 µM (inactive) | 48.9 µM (inactive) | 45.7 µM (inactive) |  |
| CC(=O)C(O)N1C(=O)C=CC1=O (configuration not stated) | 18.1 µM (inactive) | 16.4 µM (inactive) | 17.6 µM (inactive) | 2.83 µM (inactive) | 5.61 µM (inactive) | 17.6 µM (inactive) | 25.2 µM (inactive) | 1.84 | 6.5 µM (inactive) | 15.9 µM (inactive) | 5.41 µM (inactive) | > 25 µM (inactive) | 1.79 µM (inactive) | 6.11 µM (inactive) | 2.61 µM (inactive) |  | 6.22 µM (inactive) | 17.1 µM (inactive) | 16.8 µM (inactive) | 2.26 µM (inactive) |
| Cc1cc(S(=O)(=O)NC2=NCCCN2)c(S)cc1Cl | > 100 µM (inactive) | 20.8 µM (inactive) | 31.6 µM (inactive) | 49.4 µM (inactive) | 31.8 µM (inactive) | 40.6 µM (inactive) | 36.6 µM (inactive) | 43.6 | 38.9 µM (inactive) |  | 57.8 µM (inactive) | > 10 µM (inactive) | 16.8 µM (inactive) | 58.5 µM (inactive) | 33.8 µM (inactive) | 16.8 µM (inactive) | 24.3 µM (inactive) | 33 µM (inactive) | 27.9 µM (inactive) |  |
| CC(C)CC(NC(=O)OC(C)(C)C)C(=O)NC(CCC(=O)OCc1ccc([N+](=O)[O-])cc1)C(=O)OCc1ccc([N+](=O)[O-])cc1 (stereo not drawn) (Boc-Leu-Glu(ONb)-ONb; configuration not given here) | 40.2 µM (inactive) | 21.2 µM (inactive) | 26.6 µM (inactive) | > 100 µM (inactive) | 37.5 µM (inactive) | > 100 µM (inactive) |  | > 100 | 49.2 µM (inactive) | 20 µM (inactive) | 18.7 µM (inactive) | > 10 µM (inactive) | > 100 µM (inactive) | 27.9 µM (inactive) | 46.6 µM (inactive) | > 100 µM (inactive) | 37.1 µM (inactive) | > 100 µM (inactive) | 28.4 µM (inactive) | 22.4 µM (inactive) |
| C/C=C(\C)c1cc(=O)c2c(C)cc3c(c2o1)C(OC)(OC(C)=O)c1c(O)c(C2CC(C)(N(C)C)C(OC(C)=O)C(C)O2)cc(C2CC(N(C)C)C(OC(C)=O)C(C)O2)c1C3=O (configuration not stated) | 1.27 µM (inactive) | 0.489 µM (active) | 2.28 µM (inactive) | 0.893 µM (active) | 0.286 µM (active) | 1.78 µM (inactive) | 2.75 µM (inactive) | 1.05 | 1.07 µM (active) | 1.02 µM (active) | 1.55 µM (inactive) | 1.64 µM (inactive) | 0.436 µM (active) | 1.16 µM (inactive) | 0.202 µM (active) |  | 0.552 µM (active) | 2.17 µM (inactive) | 1.22 µM (inactive) |  |
| CC(C)(C)n1c(=O)n(-c2ccccc2)n(C(C)(C)C)c1=O | > 100 µM (inactive) | > 100 µM (inactive) | > 100 µM (inactive) | > 100 µM (inactive) | > 100 µM (inactive) | > 100 µM (inactive) | > 100 µM (inactive) | > 100 | > 100 µM (inactive) | > 100 µM (inactive) | > 100 µM (inactive) | > 100 µM (inactive) | > 100 µM (inactive) | > 100 µM (inactive) | > 100 µM (inactive) | > 100 µM (inactive) | > 100 µM (inactive) | > 100 µM (inactive) | > 100 µM (inactive) |  |
| Cc1ccc(C(=O)NCc2ccccc2)cc1/N=N/N(C)C |  | > 58.7 µM (inactive) | 44.3 µM (inactive) | > 100 µM (inactive) | > 72.1 µM (inactive) | > 100 µM (inactive) | > 100 µM (inactive) | > 83 | > 100 µM (inactive) | > 100 µM (inactive) | > 100 µM (inactive) | > 100 µM (inactive) | > 100 µM (inactive) | 71.3 µM (inactive) | > 75.3 µM (inactive) | > 76.2 µM (inactive) | > 100 µM (inactive) | > 100 µM (inactive) | > 100 µM (inactive) | 40.9 µM (inactive) |
| Nc1ccc(C(=O)NN2C(=O)[C@H](Cl)C2c2ccc(Cl)cc2)cc1 (some centres not stated) |  | 0.156 µM (active) | 0.57 µM (active) | 1.04 µM (active) | 0.434 µM (active) | 1.67 µM (inactive) | 1.88 µM (inactive) | 0.646 | 3.55 µM (inactive) | 0.869 µM (active) | 1.79 µM (inactive) | 1.17 µM (inactive) | 1.4 µM (inactive) | 1.6 µM (inactive) | 0.789 µM (active) | 0.615 µM (active) | 1.76 µM (inactive) | 4.2 µM (inactive) | 1.68 µM (inactive) | 1.21 µM (inactive) |
| Cc1ccc(NC(=O)CC(=O)N2N=C(c3ccccc3)C(/N=N/c3ccc(S(=O)(=O)CCOS(=O)(=O)O)cc3)C2=O)cc1 (configuration not stated) | > 100 µM (inactive) | > 100 µM (inactive) | > 100 µM (inactive) | > 100 µM (inactive) | 57.9 µM (inactive) | > 100 µM (inactive) |  | > 100 | > 100 µM (inactive) | 23.6 µM (inactive) | > 100 µM (inactive) | 65.9 µM (inactive) | > 100 µM (inactive) | > 100 µM (inactive) | > 100 µM (inactive) |  | 64.3 µM (inactive) | > 100 µM (inactive) |  | > 100 µM (inactive) |
| CCOC(=O)c1cc2c3c(c(C(C)=O)c(O)c2[nH]1)N(C(C)=O)CC3 | 52.5 µM (inactive) | > 100 µM (inactive) | 34 µM (inactive) | > 100 µM (inactive) | 68.4 µM (inactive) | > 100 µM (inactive) | > 100 µM (inactive) | 49.7 | 61 µM (inactive) | 46.9 µM (inactive) | 48.9 µM (inactive) | 55.8 µM (inactive) | > 100 µM (inactive) | 48.3 µM (inactive) | 27.5 µM (inactive) |  | 38.1 µM (inactive) | > 100 µM (inactive) | 81.3 µM (inactive) | 19.3 µM (inactive) |
| CCOC(=O)C1CCC(=O)N1C(=O)c1ccccc1Cl (configuration not stated) | > 100 µM (inactive) | > 100 µM (inactive) | > 100 µM (inactive) | > 100 µM (inactive) | > 100 µM (inactive) | > 100 µM (inactive) |  | > 100 | > 100 µM (inactive) | > 100 µM (inactive) | > 100 µM (inactive) | > 100 µM (inactive) | > 100 µM (inactive) | > 100 µM (inactive) | > 100 µM (inactive) |  | > 100 µM (inactive) | > 100 µM (inactive) | 27.4 µM (inactive) | > 100 µM (inactive) |
| CSc1nncc2[nH]cnc12 | > 100 µM (inactive) | > 100 µM (inactive) | > 100 µM (inactive) | > 100 µM (inactive) | > 100 µM (inactive) | > 100 µM (inactive) |  | > 100 | > 100 µM (inactive) | > 100 µM (inactive) | > 100 µM (inactive) | > 100 µM (inactive) | > 100 µM (inactive) | > 100 µM (inactive) | > 100 µM (inactive) |  | > 100 µM (inactive) | > 100 µM (inactive) | > 100 µM (inactive) | > 100 µM (inactive) |
| O=C1CSC(c2c(O)ccc3ccccc23)N1n1c(S)nnc(/C=C/c2c(O)ccc3ccccc23)c1=O (configuration not stated) | 2.76 µM (inactive) | 1.27 µM (inactive) | 0.387 µM (active) | 0.752 µM (active) | 0.359 µM (active) | 1.69 µM (inactive) |  | 0.327 | 6.15 µM (inactive) | 1.98 µM (inactive) |  | 0.451 µM (active) | 0.489 µM (active) | 3.18 µM (inactive) | 0.466 µM (active) | 0.583 µM (active) | 0.467 µM (active) | 1.99 µM (inactive) | 0.705 µM (active) | 1.26 µM (inactive) |
| C=C1[C@@H]2CCC3[C@]4(C)C(CC[C@@]5(C)C(=O)O[C@H](O)[C@@H]45)[C@H](O)[C@]3(C2)[C@H]1OC1OC(CO)C(O)C(O)C1O (some centres not stated) | > 50 µM (inactive) | > 50 µM (inactive) | > 50 µM (inactive) | > 50 µM (inactive) | > 50 µM (inactive) | > 50 µM (inactive) | > 50 µM (inactive) | > 50 | > 50 µM (inactive) | > 50 µM (inactive) | > 50 µM (inactive) | > 50 µM (inactive) |  | > 50 µM (inactive) | > 50 µM (inactive) | > 50 µM (inactive) | > 50 µM (inactive) | > 50 µM (inactive) | > 50 µM (inactive) | 8.81 µM (inactive) |
